From patent US9499552B2, “Pyrazolo[1,5-A]pyrimidine derivative and use of anti-tumor thereof” (YANTAI UNIVERSITY, priority 2014, dated 2016)

Key:
[1] = molecular target: T1, TRPC6 ion channels (Mus musculus, UniProt Q61143); assay: Fluorescent membrane potential (FMP) detection of TRPC6 activation; assay type: cell-based; details: M085 at 0.4 μM~30 μM; HEK293 cells permanently transfected with TRPC6
T1 construct: expressed in transfected cells; host or cells: HEK293 co-expressing M5 muscarinic receptor
T1 sequence (Q61143 1-930): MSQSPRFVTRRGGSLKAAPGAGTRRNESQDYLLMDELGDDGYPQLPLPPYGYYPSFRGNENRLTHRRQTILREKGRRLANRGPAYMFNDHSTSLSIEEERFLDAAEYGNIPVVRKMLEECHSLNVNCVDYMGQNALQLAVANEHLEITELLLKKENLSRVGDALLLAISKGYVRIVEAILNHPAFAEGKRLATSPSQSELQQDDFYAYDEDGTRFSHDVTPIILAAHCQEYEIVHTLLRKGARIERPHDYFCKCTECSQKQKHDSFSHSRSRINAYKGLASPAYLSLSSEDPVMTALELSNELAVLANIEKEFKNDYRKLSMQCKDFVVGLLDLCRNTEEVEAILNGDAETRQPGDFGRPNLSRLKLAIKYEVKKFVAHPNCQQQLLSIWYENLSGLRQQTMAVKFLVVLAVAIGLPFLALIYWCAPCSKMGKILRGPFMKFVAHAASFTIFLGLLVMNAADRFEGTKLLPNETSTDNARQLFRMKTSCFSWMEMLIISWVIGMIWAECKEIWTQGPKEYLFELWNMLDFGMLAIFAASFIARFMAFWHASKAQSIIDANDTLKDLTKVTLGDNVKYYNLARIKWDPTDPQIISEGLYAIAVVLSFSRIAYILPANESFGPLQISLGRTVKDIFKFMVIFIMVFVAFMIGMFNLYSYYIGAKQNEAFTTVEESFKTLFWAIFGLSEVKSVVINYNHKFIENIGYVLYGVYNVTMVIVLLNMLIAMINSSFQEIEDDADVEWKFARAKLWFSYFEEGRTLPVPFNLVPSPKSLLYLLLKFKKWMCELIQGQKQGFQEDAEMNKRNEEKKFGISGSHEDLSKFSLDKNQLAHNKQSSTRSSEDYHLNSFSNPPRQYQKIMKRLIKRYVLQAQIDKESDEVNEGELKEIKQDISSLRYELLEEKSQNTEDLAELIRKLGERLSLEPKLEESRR
Description: Pyrazolopyrimidines and their derivatives activated TRPC6 ion channels (FIG. 1). In HEK293 cells permanently transfected with TRPC6 ion channels, M085 was used as activator to detect the fluorescent membrane potential. Firstly, cells were stained with FLIPR membrane potential dyes (FMP). At 30 s, 0.1 μM, 0.4 μM, 1.1 μM, 3.3 μM, 10 μM, 30 μM of M085 were added, respectively.

[2] = tested on: HEK293 cells which were not transfected with TRPC6 ion channels; assay: Fluorescent membrane potential detection in non-transfected control cells; assay type: cell-based; details: M085 0.1-30 μM
[3] = molecular target: T2, mice TRPC6 (Mus musculus, UniProt Q61143); assay: Fluorescence calcium flux (Fluo4) detection of TRPC6 activation; assay type: cell-based; details: HEK293 cells expressing mice TRPC6
T2 construct: expressed in transfected cells; host or cells: HEK293
T2 sequence (Q61143 1-930): T1 sequence (Q61143 1-930)
Description: Similar fluorescence calcium flux was used to detect the effect of M085 on [Ca^2+] concentration in HEK293 cells expressing mice TRPC6. The cells were stained using Ca^2+ indicator Fluo4. At 30 s, 0.1 μM, 0.4 μM, 1.1 μM, 3.3 μM, 10 μM, 30 μM of M085 were added. […] Wherein, M086 was subjected to fluorescent calcium flux detection and fluorescent membrane potential detection, respectively.

[4] = molecular target: T3, TRPC6 channel (Mus musculus, UniProt Q61143); assay: Whole-cell patch clamp assay, TRPC6 activation; assay type: cell-based; details: for activation effect for TRPC6 channel (whole-cell patch clamp): HEK293 cells clamped at -100~+100 mV
T3 construct: expressed in transfected cells; host or cells: HEK293
T3 sequence (Q61143 1-930): T1 sequence (Q61143 1-930)
Description: HEK293 cells were clamped at −100˜+100 mV in the whole-cell recording mode.

[5] = molecular target: T3, TRPC6 channel; assay: Whole-cell patch clamp assay, TRPC6 inhibition (carbachol-activated); assay type: cell-based; details: for inhibition of TRPC6 channel (whole-cell patch clamp): HEK293 cells clamped at -100~+100 mV
Description: M107 is representative (FIG. 3B, C). HEK293 cells were clamped at −100˜+100 mV in whole-cell recording mode. TRPC6 ion channels activated by carbachol (CCh, 30 μM) was inhibited by M107 (20 μM). At −100˜+100 mV, 20 μM of M107 provided 60% and 20% of inhibition rate for CCh (n=5).

[6] = tested on: MCF7 human breast cancer cell line; assay: MTT cytotoxic activity, MCF7; assay type: cell-based; details: 72 h, read-out: IC50 cytotoxic activity in vitro
Description: (§1) After the cells in logarithmic growth phase were digested with 0.25% trypsin-EDTA, a cell suspension at a certain concentration was prepared. Depending on cell growth rate, they were inoculated in 96-well plates at 1000-2000 cells/well. To each well 100 μL of the cell suspension was added. After 24 h, fresh medium containing various concentrations of the compounds or the corresponding solvent were added at 100 μL per well (DMSO final concentration <0.1%). 5 to 7 dose groups were arranged for each test compound. Each group comprised at least 3 parallel wells. After further culturing at 37° C. for 72 h, the supernatant was discarded. 100 μL of fresh serum-free medium containing 0.5 mg/mL MTT was added to each well, further cultured for 2 h. After the supernatant was discarded, to each well was added 200 μL DMSO to dissolve MTT formazan precipitate. After mixing homogeneously by a microoscillator, optical density (OD) was measured at 450 nm of reference wavelength, and at 570 nm of detection wavelength by a Microplate reader. The tumor cells treated by the solvent control was used as the control group. The inhibition rate of tumor cells for the compounds were calculated by the following equation and IC50 was calculated by the half of inhibition equation: […]

[7] = tested on: H460 human lung cancer cell line; assay: MTT cytotoxic activity, H460; assay type: cell-based; details: 72 h, read-out: IC50 cytotoxic activity in vitro
Description: as §1

[8] = tested on: KB human oral epithelium carcinoma cell line; assay: MTT cytotoxic activity, KB; assay type: cell-based; details: 72 h, read-out: IC50 cytotoxic activity in vitro
Description: as §1

[9] = tested on: Lncap human prostate cancer cell line; assay: MTT cytotoxic activity, Lncap; assay type: cell-based; details: 72 h, read-out: IC50 cytotoxic activity in vitro
Description: as §1

[10] = tested on: Pc3 human prostate cancer cell line; assay: MTT cytotoxic activity, Pc3; assay type: cell-based; details: 72 h, read-out: IC50 cytotoxic activity in vitro
Description: as §1

[11] = tested on: Du145 human prostate cancer cell line; assay: MTT cytotoxic activity, Du145; assay type: cell-based; details: 72 h, read-out: IC50 cytotoxic activity in vitro
Description: as §1

[12] = tested on: RM-1 mouse prostate cancer cell line; assay: MTT cytotoxic activity, RM-1; assay type: cell-based; details: RM-1, MTT, 72 h; read-out: IC50 cytotoxic activity in vitro
Description: as §1

[13] = tested on: prostate cancer RM-1 transplanted tumor; assay: Mice prostate cancer RM-1 transplanted tumor model; assay type: in vivo; details: for Inhibition rate of tumor growth / Tumor weight / body weight of Animals, Final / body weight of Animals, Initial: male C57/BL6 mice, i.p., Docetaxel 10 mg/kg × 3, M110 50 mg/kg × 4
Description: Male C57/BL6 mice (18-22 g) were used. The experiment procedures are summarized as follows: mice who had prostate cancer RM-1 and grown well were sacrificed by cervical dislocation. Under sterile conditions, tumor mass growing well was stripped off, homogenized, diluted with physiological saline in 1:4. Each mouse was inoculated 0.2 mL of the tumor solution in the armpit and back (approximately 2*10^6 cells). On the next day, the animals were randomized into groups and the administration began. Compound M110 was administered at 50 mg/kg by intraperitoneal injection at 24 h after inoculation. The dosing volume was 0.1 mL/10 g. At the same time, docetaxel control group and solvent control group were set. As for the docetaxel group, the animals were administered by intraperitoneal injection at 10 mg/kg dose, the dosing volume was 0.1 mL/10 g. After continuous administration for 10 days, the animals were sacrificed by cervical dislocation, weighed the body and the tumor, respectively. Inhibition rate of tumor growth (%) was calculated, and the results were statistically processed.

CCOC(=O)N1CCC(c2cc(O)n3nc(C)c(-c4ccc(F)cc4)c3n2)CC1 [Compound M085]
membrane depolarization (FMP fluorescence) [1]: increase of membrane depolarization | fluorescent change (FMP) [2]: no significantly fluorescent change | activating effect for TRPC6 ion channel (fluorescence calcium flux) [3]: exhibited activating effect | intracellular [Ca2+] ([3]; M085 at 3.3 μM~30 μM, Fluo4): significantly increased | activation effect for TRPC6 channel (whole-cell patch clamp) [4]: have activation effect | EC50 ([4]; HEK293 cells, concentration response 0.04-10 μM, n=5-7): 2.5 µM

Cc1nn2c(O)cc(C3CCN(C(=O)OCc4ccccc4)CC3)nc2c1-c1ccc(F)cc1 [Compound M086]
activating effect for TRPC6 ion channel (fluorescence calcium flux) [3]: exhibited activating effect | activation effect for TRPC6 channel (whole-cell patch clamp) [4]: have activation effect

Cc1nn2c(O)cc(C3CCN(C(=O)OCc4ccccc4)CC3)nc2c1-c1ccc(Cl)cc1 [Compound M091]
activating effect for TRPC6 ion channel (fluorescence calcium flux) [3]: exhibited activating effect | activation effect for TRPC6 channel (whole-cell patch clamp) [4]: have activation effect

CCOC(=O)N1CCC(c2cc(O)n3nc(C)c(-c4ccc(C(F)(F)F)cc4)c3n2)CC1 [Compound M092]
activating effect for TRPC6 ion channel (fluorescence calcium flux) [3]: exhibited activating effect | activation effect for TRPC6 channel (whole-cell patch clamp) [4]: have activation effect

Cc1nn2c(O)cc(C3CCN(C(=O)OC(C)(C)C)CC3)nc2c1-c1ccc(F)cc1 [Compound M107]
inhibition rate for CCh-activated TRPC6 current, first value ([5]; 20 μM compound, CCh 30 μM, at -100~+100 mV (first printed, -100 mV), n=5): 60% | inhibition rate for CCh-activated TRPC6 current, second value ([5]; 20 μM compound, CCh 30 μM, at -100~+100 mV (second printed, +100 mV), n=5): 20% | inhibition of TRPC6 channel (whole-cell patch clamp) [5]: inhibited TRPC6 channel

CCOC(=O)N1CCC(C)(c2cc(O)n3nc(C)c(-c4ccc(F)cc4)c3n2)CC1 [Compound M110]
inhibition of TRPC6 channel (whole-cell patch clamp) [5]: inhibited TRPC6 channel | IC50 [6]: 12.1 µM | IC50 [7]: 21.9 µM | IC50 [8]: 9.47 µM | IC50 [9]: 4.33 µM | IC50 [10]: 30.8 µM | IC50 [11]: > 100 µM | IC50 [12]: 25.6 µM | Inhibition rate of tumor growth [13]: 23% | Tumor weight [13]: 2.0 ± 0.73 g | body weight of Animals, Final [13]: 21.33 ± 1.51 g | body weight of Animals, Initial [13]: 20.00 ± 0.76 g | pharmacological activity in vivo on RM-1 transplanted tumor growth ([13]; mice): inhibit growth of prostate cancer RM-1 transplanted tumor

CC(=O)O[C@@]12CO[C@@H]1C[C@H](O)[C@@]1(C)C(=O)[C@H](O)C3=C(C)[C@@H](OC(=O)[C@H](O)[C@@H](NC(=O)OC(C)(C)C)c4ccccc4)C[C@@](O)([C@@H](OC(=O)c4ccccc4)[C@H]21)C3(C)C [Docetaxel, docetaxel, reference compound]
Inhibition rate of tumor growth [13]: 32% | Tumor weight [13]: 1.77 ± 0.61 g | body weight of Animals, Final [13]: 18.43 ± 2.17 g | body weight of Animals, Initial [13]: 20.00 ± 1.07 g
